# From publication PMC9942948 (Journal of medicinal chemistry, 2022)
# What was measured:
# WT Polθ = WT Polθ (Homo sapiens, UniProt O75417); assay: Differential Scanning Fluorimetry; type: binding; conditions: compound alone, no DNA
# [1] = Metabolite identification in human microsomes; type: in vitro ADME
# [2] = Mouse liver microsomal stability; type: in vitro ADME; conditions: liver microsomes
# [3] = Metabolite identification in mouse microsomes; type: in vitro ADME
# [4] = tested on: HCT116 BRCA2+/+ xenograft tumors; assay: HCT116 BRCA2+/+ xenograft efficacy; type: in vivo, mouse; conditions: 80 mg/kg BID PO, 21 days
# Pol ε = Pol ε (Homo sapiens, UniProt Q07864); assay: DNA polymerase selectivity, Pol ε
# Pol ε, sequence (Q07864 whole entry): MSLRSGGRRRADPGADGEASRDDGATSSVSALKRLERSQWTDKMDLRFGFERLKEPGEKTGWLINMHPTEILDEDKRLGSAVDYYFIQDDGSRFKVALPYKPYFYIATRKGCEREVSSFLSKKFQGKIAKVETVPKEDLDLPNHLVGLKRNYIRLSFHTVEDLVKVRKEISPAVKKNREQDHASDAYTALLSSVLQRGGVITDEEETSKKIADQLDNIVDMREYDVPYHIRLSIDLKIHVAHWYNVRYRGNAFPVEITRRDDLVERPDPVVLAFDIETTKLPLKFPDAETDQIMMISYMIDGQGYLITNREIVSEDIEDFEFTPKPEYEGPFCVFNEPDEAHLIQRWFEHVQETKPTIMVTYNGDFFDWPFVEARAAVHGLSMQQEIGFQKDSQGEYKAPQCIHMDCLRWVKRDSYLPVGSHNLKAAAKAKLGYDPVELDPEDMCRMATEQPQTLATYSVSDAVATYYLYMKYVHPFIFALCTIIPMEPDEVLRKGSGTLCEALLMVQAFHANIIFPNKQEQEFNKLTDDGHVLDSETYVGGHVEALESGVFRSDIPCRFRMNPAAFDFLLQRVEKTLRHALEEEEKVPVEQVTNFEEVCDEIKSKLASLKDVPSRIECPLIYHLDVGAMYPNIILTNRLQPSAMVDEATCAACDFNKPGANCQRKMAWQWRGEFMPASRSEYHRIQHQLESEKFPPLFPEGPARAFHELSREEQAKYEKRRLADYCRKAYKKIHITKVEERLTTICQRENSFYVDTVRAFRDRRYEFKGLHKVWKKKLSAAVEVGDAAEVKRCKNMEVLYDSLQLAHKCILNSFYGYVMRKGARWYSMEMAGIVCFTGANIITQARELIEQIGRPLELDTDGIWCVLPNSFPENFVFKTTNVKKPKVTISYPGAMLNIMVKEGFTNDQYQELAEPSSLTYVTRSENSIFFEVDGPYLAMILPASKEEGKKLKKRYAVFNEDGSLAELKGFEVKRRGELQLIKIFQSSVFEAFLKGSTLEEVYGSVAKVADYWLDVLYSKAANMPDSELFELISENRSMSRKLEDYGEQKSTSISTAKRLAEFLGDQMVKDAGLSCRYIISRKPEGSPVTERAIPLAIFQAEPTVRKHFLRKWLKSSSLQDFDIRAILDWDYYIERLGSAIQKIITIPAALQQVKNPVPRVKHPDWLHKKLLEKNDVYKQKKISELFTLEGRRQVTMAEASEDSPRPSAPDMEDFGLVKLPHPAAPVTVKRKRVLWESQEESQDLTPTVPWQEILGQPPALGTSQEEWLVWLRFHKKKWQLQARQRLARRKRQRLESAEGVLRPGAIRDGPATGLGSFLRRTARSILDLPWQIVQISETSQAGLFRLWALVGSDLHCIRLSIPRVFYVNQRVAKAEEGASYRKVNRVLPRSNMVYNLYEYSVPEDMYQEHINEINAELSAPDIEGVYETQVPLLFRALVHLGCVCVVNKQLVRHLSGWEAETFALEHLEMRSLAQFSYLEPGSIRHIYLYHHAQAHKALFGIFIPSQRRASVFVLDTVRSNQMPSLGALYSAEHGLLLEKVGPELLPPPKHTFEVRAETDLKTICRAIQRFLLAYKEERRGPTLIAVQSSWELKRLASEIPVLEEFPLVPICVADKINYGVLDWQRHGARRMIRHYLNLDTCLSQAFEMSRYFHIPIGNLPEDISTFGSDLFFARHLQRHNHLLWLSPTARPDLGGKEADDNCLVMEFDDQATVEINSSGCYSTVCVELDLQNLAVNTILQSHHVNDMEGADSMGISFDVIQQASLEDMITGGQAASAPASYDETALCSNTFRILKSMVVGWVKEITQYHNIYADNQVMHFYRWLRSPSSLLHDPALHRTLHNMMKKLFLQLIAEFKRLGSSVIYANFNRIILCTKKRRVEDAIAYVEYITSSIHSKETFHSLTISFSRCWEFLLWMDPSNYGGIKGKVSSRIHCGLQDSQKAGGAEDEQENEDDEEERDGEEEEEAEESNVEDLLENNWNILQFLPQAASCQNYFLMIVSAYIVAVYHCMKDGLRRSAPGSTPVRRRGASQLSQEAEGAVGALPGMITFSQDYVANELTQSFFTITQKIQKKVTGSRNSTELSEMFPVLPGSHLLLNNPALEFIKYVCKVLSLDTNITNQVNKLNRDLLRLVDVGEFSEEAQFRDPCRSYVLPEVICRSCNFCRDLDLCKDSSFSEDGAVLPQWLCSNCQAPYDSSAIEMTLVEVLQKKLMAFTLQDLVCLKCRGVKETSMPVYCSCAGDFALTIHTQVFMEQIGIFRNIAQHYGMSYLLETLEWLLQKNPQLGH
# Pol λ = target: T1, Pol λ (Homo sapiens, UniProt Q9UGP5); assay: DNA polymerase selectivity, Pol λ
# T1 sequence (Q9UGP5 1-575): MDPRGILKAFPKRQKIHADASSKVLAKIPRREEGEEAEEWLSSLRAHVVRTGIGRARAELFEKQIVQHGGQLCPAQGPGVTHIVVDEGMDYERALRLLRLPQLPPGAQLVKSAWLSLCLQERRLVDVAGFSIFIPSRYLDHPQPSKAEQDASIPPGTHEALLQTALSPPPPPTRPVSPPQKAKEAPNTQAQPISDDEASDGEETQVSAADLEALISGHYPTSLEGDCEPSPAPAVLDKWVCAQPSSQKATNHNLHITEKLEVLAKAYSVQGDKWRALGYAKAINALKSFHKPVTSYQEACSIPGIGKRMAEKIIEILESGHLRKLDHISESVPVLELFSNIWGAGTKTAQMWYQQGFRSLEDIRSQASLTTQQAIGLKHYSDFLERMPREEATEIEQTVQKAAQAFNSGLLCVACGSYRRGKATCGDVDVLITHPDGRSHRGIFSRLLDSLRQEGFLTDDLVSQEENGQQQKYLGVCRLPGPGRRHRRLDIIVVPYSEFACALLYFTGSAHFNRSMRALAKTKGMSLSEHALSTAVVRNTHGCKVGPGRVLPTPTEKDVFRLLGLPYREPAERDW
# [5] = Tolerability in the xenograft study; type: in vivo
# [6] = PK on days 1 and 7 of BID oral dosing in CD-1 nude mice; type: in vivo; conditions: Day 7 vs Day 1, BID oral
# [7] = tested on: HCT116 BRCA2−/− xenograft tumors; assay: HCT116 BRCA2−/− xenograft efficacy; type: in vivo, mouse; conditions: 80 mg/kg BID PO, BRCA2-deficient HCT116
# [8] = tested on: HCT116 BRCA2−/− xenograft tumor cells; assay: PD markers by immunofluorescence in cells isolated from tumors; type: in vivo, mouse
# [9] = target: full-length Polθ (aa 1–2590), ATPase activity (Homo sapiens, UniProt O75417); assay: Full-length Polθ ATPase activity; type: biochemical
# full-length Polθ (aa 1–2590), ATPase activity, sequence (O75417 whole entry, the tested form may be a part): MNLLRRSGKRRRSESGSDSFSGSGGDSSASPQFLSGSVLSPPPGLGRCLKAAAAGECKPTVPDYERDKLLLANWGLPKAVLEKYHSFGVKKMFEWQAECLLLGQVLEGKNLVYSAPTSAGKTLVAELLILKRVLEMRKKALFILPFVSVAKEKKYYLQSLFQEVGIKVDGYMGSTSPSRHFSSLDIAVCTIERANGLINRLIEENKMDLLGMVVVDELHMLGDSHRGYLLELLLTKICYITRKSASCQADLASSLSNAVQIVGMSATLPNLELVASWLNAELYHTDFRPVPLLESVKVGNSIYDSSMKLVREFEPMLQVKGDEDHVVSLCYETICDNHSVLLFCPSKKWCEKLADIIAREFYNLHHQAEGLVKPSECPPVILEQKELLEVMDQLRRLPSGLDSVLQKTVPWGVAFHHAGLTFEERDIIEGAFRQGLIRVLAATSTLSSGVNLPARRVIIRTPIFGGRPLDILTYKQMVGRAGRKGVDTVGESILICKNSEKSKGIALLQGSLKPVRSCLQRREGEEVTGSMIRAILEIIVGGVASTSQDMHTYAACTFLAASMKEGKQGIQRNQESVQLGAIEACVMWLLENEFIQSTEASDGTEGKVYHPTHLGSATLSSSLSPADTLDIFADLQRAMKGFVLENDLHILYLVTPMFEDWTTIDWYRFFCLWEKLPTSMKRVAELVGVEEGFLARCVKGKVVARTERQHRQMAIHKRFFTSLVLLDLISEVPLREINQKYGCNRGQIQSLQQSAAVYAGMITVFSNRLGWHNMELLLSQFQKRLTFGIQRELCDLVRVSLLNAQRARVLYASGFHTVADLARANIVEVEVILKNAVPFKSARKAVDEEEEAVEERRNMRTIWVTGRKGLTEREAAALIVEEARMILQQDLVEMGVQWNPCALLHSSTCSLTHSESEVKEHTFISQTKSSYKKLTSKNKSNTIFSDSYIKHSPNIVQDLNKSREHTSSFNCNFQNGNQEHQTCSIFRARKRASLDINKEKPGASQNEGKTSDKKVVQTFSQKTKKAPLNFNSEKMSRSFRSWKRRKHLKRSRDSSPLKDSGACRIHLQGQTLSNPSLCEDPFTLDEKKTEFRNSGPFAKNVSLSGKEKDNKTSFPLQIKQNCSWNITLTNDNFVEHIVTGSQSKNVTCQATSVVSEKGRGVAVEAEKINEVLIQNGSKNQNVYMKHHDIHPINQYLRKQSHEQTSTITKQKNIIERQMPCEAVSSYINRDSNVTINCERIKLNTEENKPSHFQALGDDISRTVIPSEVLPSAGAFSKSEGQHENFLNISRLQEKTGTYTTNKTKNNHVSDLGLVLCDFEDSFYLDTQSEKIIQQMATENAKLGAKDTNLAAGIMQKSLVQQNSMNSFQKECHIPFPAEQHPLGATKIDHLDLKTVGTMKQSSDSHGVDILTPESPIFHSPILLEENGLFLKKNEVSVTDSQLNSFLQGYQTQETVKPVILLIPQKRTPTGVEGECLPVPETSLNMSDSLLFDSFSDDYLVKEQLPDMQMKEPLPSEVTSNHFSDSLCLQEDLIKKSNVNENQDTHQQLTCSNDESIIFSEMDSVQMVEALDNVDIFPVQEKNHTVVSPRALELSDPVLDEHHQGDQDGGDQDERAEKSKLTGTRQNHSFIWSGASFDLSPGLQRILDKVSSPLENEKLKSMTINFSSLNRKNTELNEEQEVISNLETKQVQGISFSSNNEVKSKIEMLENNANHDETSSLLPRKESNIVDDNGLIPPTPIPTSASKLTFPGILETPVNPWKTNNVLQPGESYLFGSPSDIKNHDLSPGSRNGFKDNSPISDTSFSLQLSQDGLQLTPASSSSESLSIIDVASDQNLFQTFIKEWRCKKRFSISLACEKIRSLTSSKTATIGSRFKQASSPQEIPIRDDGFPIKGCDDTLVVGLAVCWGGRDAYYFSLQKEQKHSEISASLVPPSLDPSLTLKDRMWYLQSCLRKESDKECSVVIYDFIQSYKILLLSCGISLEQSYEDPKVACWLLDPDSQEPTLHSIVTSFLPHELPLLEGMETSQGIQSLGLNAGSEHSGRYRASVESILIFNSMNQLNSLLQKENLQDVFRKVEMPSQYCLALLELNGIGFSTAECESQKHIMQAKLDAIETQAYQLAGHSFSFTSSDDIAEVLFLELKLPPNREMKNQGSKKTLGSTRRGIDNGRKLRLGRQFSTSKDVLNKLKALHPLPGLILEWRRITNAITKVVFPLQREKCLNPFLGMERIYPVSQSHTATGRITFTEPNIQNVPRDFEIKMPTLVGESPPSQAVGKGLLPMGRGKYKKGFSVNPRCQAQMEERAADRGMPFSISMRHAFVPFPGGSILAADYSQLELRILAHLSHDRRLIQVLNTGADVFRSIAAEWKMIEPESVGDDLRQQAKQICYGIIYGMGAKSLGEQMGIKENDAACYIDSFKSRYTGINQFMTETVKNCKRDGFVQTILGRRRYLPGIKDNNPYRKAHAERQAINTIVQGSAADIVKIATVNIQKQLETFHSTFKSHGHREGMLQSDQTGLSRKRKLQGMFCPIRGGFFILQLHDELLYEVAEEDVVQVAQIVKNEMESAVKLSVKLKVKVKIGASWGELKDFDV
# [10] = tested on: Polθ-mediated MMEJ repair at AAVS1 locus in HCT116 WT cells; assay: Cas9-induced double-strand DNA break assay; type: cell-based; conditions: Homo sapiens, HCT-116, read-out: potency in DSB repair of AAVS1 loci
# Pol μ = Pol μ (Homo sapiens, UniProt Q9NP87); assay: DNA polymerase selectivity, Pol μ
# in vitro = in vitro ADME, canine; conditions: dog, MDCK
# [11] = Mouse PK, iv/po in CD1 mice; type: in vivo; conditions: female, whole blood, 2.5 mg/kg
# [12] = tested on: MMEJ in 293T-Lig4−/−TLR1.1 cells; assay: Traffic-light reporter assay; type: cell-based, human; conditions: HEK293 LIG4−/− cell line
# [13] = nude mice, 80 mg/kg BID PO, 21 days
# WT Polθ, sequence (O75417 whole entry): as the sequence (O75417 whole entry, the tested form may be a part) above
structure (smiles),measurement,setting,value
CN(C(=S)Cn1nc2c(c1C(F)(F)F)CCC2)c1ccccc1 [Compound 14],thermal stabilization of WT Polθ,WT Polθ,did not show any thermal stabilization
CC1CCc2nn(CC(=O)N(C)c3ccccc3)c(C(F)(F)F)c21 (stereo not drawn) [Compound 9],thermal stabilization of WT Polθ,WT Polθ,did not show any thermal stabilization
CN(C(=O)Cc1ccc(C(F)(F)F)cc1C(F)(F)F)c1ccccc1 [Compound 15],major routes of metabolism,[1],N-demethylation and hydroxylation of the phenyl ring
same,microsomal CLint,[2],> 555 µL/min/mg
same,major routes of metabolism,[3],N-demethylation and hydroxylation of the phenyl ring
"Nc1ccc(C#CCN(C(=O)Cc2ncc(C(F)(F)F)cc2C(F)(F)F)c2ccc(F)cc2)nn1 [RP-6685, N-[3-(6-Aminopyridazin-3-yl)prop-2-ynyl]-2-[3,5-bis(trifluoromethyl)-2-pyridyl]-N-(4-fluorophenyl)acetamide]",tumor growth inhibition,[4],no tumor growth inhibition
same,IC50,Pol ε,> 100000 nM
same,activity on Pol ε,Pol ε,inactive
same,activity on Pol λ,Pol λ,inactive
same,MTD at 21 days,"[5]; female, CD1 Nude, mouse, in vivo, po, 80 mg/kg BID",80 mg/kg
same,body weight change,[5]; [13],no significant body weight loss
same,tolerability,[5]; [13],well tolerated
same,decline of exposure over the week of dosing,[6],55 – 67%
same,difference to vehicle by Day 21,[7],not statistically significant
same,PD markers micronuclei and γH2AX,[8],modest trend towards increased micronuclei and γH2AX
same,activity on the ATPase activity of full-length Polθ,[9],inactive
same,IC50,[10],500 nM
same,activity on Pol μ,Pol μ,inactive
same,Papp,in vitro,6.2 ×10⁻⁶ cm/s
same,clearance,[11],36.8 mL/min/kg
same,effect on MMEJ in TLR assay,[12],dose-dependent decrease in MMEJ
